≈ marks a conversion by molar mass, not a printed value. Where two headings read alike, the source gives them in different places.
Tests used:
[1] = tested on: C. albicans YEM-15 (CDR1 & CDR2 overexpressor); assay: microbe, parasite or virus in culture; format: cell-based; details: Candida albicans
[2] = tested on: S. cerevisiae YEM-39 overexpressing CgCDR (C. glabrata); assay: microbe, parasite or virus in culture; format: cell-based; details: Saccharomyces cerevisiae
[3] = tested on: C. albicans BEN up; assay: MacSynergy 3-D synergy volume, checkerboard (Table 13); format: cell-based
Text: (§1) The activity of one milbemycin was also studied in checker-board assays. […] It provides information on the extent of synergism between the two drugs and the concentrations at which synergism can be detected. Using differential surface analysis, pick of synergy volumes are quantified for each combination of drugs and strain tested in a traditional checkerboard assay (Table 13).

[4] = tested on: C. krusei; assay: as above; format: cell-based
Text: as §1

[5] = tested on: C. glabrata YEM-19 (CgCDR overexpression, higher than YEM-17); assay: microbe, parasite or virus in culture; format: cell-based; details: YEM-19; fluconazole alone
[6] = tested on: YEM 51 C. glabrata wt; assay: FEPI MIC with/without 1/8 fluconazole MIC at 24 hrs (Table 11); format: cell-based; details: Nakaseomyces glabratus; YEM 51; NCCLS criteria for azoles; read-out: FLU MIC
[7] = tested on: C. glabrata YEM-16 (low level CgBEN and CgCDR expression); assay: microbe, parasite or virus in culture; format: cell-based; details: YEM-16; fluconazole alone
[8] = tested on: S. cerevisiae YEM-3 parent strain (no pump); assay: microbe, parasite or virus in culture; format: cell-based; details: Saccharomyces cerevisiae, read-out: MIC for the parent strain to fluconazole
[9] = tested on: YEM 24 C. albicans ΔCDR1, ΔCDR2; assay: microbe, parasite or virus in culture; format: cell-based; details: Candida albicans, read-out: FLU MIC
[10] = tested on: C. albicans YEM-14 (low level CDR1 expressor); assay: microbe, parasite or virus in culture; format: cell-based; details: Candida albicans, read-out: MIC Flu alone
[11] = tested on: C. krusei; assay: microbe, parasite or virus in culture; format: cell-based; details: Pichia kudriavzevii, read-out: Fluconazole MIC, alone
[12] = tested on: C. albicans YEM-12 (low level CDR1 expressor); assay: microbe, parasite or virus in culture; format: cell-based; details: Candida albicans, read-out: MIC Flu alone
[13] = tested on: S. cerevisiae YEM-1 overexpressing CDR1 (C. albicans); assay: microbe, parasite or virus in culture; format: cell-based; details: Saccharomyces cerevisiae
[14] = tested on: C. albicans YEM-21 (BEN deleted); assay: microbe, parasite or virus in culture; format: cell-based; details: Candida albicans, read-out: MIC Flu alone
[15] = tested on: C. glabrata YEM-18 (low level CgBEN and CgCDR expression); assay: microbe, parasite or virus in culture; format: cell-based; details: YEM-18; fluconazole alone
[16] = tested on: YEM 27 C. albicans ΔCDR1ΔCDR2 ΔBENΔFLU1; assay: microbe, parasite or virus in culture; format: cell-based; details: Candida albicans, read-out: FLU MIC
[17] = tested on: YEM 53 C. krusei; assay: FEPI MIC with/without 1/8 fluconazole MIC at 24 hrs (Table 11); format: cell-based; details: Pichia kudriavzevii; YEM 53; NCCLS criteria for azoles; read-out: FLU MIC
[18] = tested on: C. albicans, CDR1, CDR2, up; format: cell-based
Text: as §1

[19] = tested on: C. glabrata, CgCDR up; format: cell-based
Text: as §1

[20] = tested on: C. albicans ΔCDR1 ΔCDR2 ΔBEN ΔFLU1; format: cell-based
Text: as §1

[21] = tested on: C. lipolytica; assay: microbe, parasite or virus in culture; format: cell-based; details: Yarrowia lipolytica, read-out: Fluconazole MIC, alone
[22] = tested on: C. albicans clinical isolates (n = 33); assay: microbe, parasite or virus in culture; format: cell-based; details: Candida albicans
[23] = tested on: pCgBEN (MF) efflux pump in S. cerevisiae YEM-40; format: cell-based, C. glabrata
[24] = tested on: C. glabrata clinical isolates (n = 12); assay: microbe, parasite or virus in culture; format: cell-based; details: Nakaseomyces glabratus
[25] = tested on: C. albicans YEM-24 (CDR1, CDR2 deleted); assay: microbe, parasite or virus in culture; format: cell-based; details: Candida albicans, read-out: MIC Flu alone
[26] = tested on: C. albicans YEM-30 (wild-type, no pump deleted); assay: microbe, parasite or virus in culture; format: cell-based; details: Candida albicans, read-out: MIC Flu alone
[27] = tested on: C. neoformans; assay: microbe, parasite or virus in culture; format: cell-based, Cryptococcus neoformans; details: Cryptococcus neoformans, read-out: Fluconazole MIC, alone
[28] = tested on: C. krusei YEM-71; assay: Broth dilution checkerboard, azoles and terbinafine with milbemycin α9 (Table 8); format: cell-based; details: Pichia kudriavzevii
[29] = tested on: YEM 30 C. albicans wt; assay: FEPI MIC with/without 1/8 fluconazole MIC at 24 hrs (Table 11); format: cell-based; details: Candida albicans, YEM 30
[30] = tested on: C. krusei YEM-52 (ATCC 90878), wild type; assay: Broth dilution MIC, fluconazole with/without milbemycin oxime (Table 6); format: cell-based; details: Pichia kudriavzevii, ATCC90878; YEM-52 (ATCC 90878); read-out: MIC Flu alone
[31] = tested on: C. tropicalis; assay: microbe, parasite or virus in culture; format: cell-based; details: Candida tropicalis, read-out: Fluconazole MIC, alone
[32] = tested on: C. glabrata YEM-17 (CgCDR overexpressor); assay: microbe, parasite or virus in culture; format: cell-based; details: YEM-17; fluconazole alone
[33] = tested on: YEM 13 C. albicans BEN up; assay: microbe, parasite or virus in culture; format: cell-based; details: Candida albicans, read-out: FLU MIC
[34] = tested on: C. albicans YEM-10 (low level CDR1 expressor); assay: microbe, parasite or virus in culture; format: cell-based; details: Candida albicans, read-out: MIC Flu alone
[35] = tested on: S. cerevisiae YEM-37 overexpressing CDR2 (C. albicans); assay: microbe, parasite or virus in culture; format: cell-based; details: Saccharomyces cerevisiae
[36] = tested on: C. albicans YEM-20 (CDR1 deleted); assay: microbe, parasite or virus in culture; format: cell-based; details: Candida albicans, read-out: MIC Flu alone
[37] = tested on: C. albicans YEM-29 (BEN, FLU1 deleted); assay: microbe, parasite or virus in culture; format: cell-based; details: Candida albicans, read-out: MIC Flu alone
[38] = tested on: C. albicans YEM-27 (CDR1, CDR2, BEN, FLU1 deleted); assay: microbe, parasite or virus in culture; format: cell-based; details: Candida albicans, read-out: MIC Flu alone
[39] = tested on: C. glabrata YEM-17 (CgCDR overexpressor); assay: microbe, parasite or virus in culture; format: cell-based; details: Nakaseomyces glabratus
[40] = tested on: YEM 15 C. albicans, CDR1CDR2 up; assay: microbe, parasite or virus in culture; format: cell-based; details: Candida albicans, read-out: FLU MIC
[41] = tested on: C. albicans, wt; assay: MacSynergy 3-D synergy volume, checkerboard (Table 13); format: cell-based
Text: as §1

[42] = tested on: C. glabrata, wt; assay: as above; format: cell-based
Text: as §1

[43] = read-out: Fluconazole MIC90, alone

## OC(Cn1cncn1)(Cn1cncn1)c1ccc(F)cc1F [Fluconazole, fluconazole, reference compound]
[1]; read-out: Fluconazole MIC
  MIC: 128 µg/mL (≈ 418 µM)
[2]; read-out: Fluconazole MIC
  MIC: 64 µg/mL (≈ 209 µM)
[3]
  Synergy Volume, fluconazole + one milbemycin (FEPI, not named): 196
[4]
  Synergy Volume, fluconazole + one milbemycin (FEPI, not named): 1178
[5]
  Fluconazole MIC with 0 μg/ml milbemycin β1: 128 µg/mL
[6]
  MIC: 64 µg/mL (≈ 209 µM)
[7]
  Fluconazole MIC with 0 μg/ml milbemycin β1: 16 µg/mL
[8]
  MIC: 0.5 µg/mL (≈ 1.63 µM)
[9]
  MIC: 0.25 µg/mL (≈ 0.816 µM)
[10]
  MIC: 0.125 µg/mL (≈ 0.408 µM)
[11]
  MIC: 128 µg/mL (≈ 418 µM)
[12]
  MIC: 2 µg/mL (≈ 6.53 µM)
[13]; read-out: Fluconazole MIC
  MIC: 128 µg/mL (≈ 418 µM)
[14]
  MIC: 0.25 µg/mL (≈ 0.816 µM)
[15]
  Fluconazole MIC with 0 μg/ml milbemycin β1: 8 µg/mL
[16]
  MIC: ≤ 0.125 µg/mL
[17]
  MIC: 64 µg/mL (≈ 209 µM)
[18]
  Synergy Volume, fluconazole + one milbemycin (FEPI, not named): 2337
[19]
  Synergy Volume, fluconazole + one milbemycin (FEPI, not named): 1815
[20]
  Synergy Volume, fluconazole + one milbemycin (FEPI, not named): 0.08
[21]
  MIC: 128 µg/mL (≈ 418 µM)
[22]; read-out: Fluconazole MIC50, alone, C. albicans n = 33, MIC (80%) in YPD
  MIC50: 1 µg/mL (≈ 3.27 µM)
[22]; [43]
  MIC90: > 128 µg/mL
[23]
  Fluconazole MIC: 32 µg/mL
[24]; read-out: Fluconazole MIC50, alone
  MIC50: 32 µg/mL (≈ 104 µM)
[24]; [43]
  MIC90: > 128 µg/mL
[25]
  MIC: 0.125 µg/mL (≈ 0.408 µM)
[26]
  MIC: 0.5 µg/mL (≈ 1.63 µM)
[27]
  MIC: > 128 µg/mL
[28]; YEM71, read-out: Fluconazole MIC
  MIC: 128 µg/mL
[29]; read-out: FLU MIC at 40 hrs, read at 40 hrs
  MIC: 64 µg/mL (≈ 209 µM)
[29]; read at 24 hours, read-out: FLU MIC at 24 hours
  MIC: 0.5 µg/mL (≈ 1.63 µM)
[30]
  MIC: 64 µg/mL (≈ 209 µM)
[31]
  MIC: > 128 µg/mL
[32]
  Fluconazole MIC with 0 μg/ml milbemycin β1: 64 µg/mL
[33]
  MIC: 64 µg/mL (≈ 209 µM)
[34]
  MIC: 0.25 µg/mL (≈ 0.816 µM)
[35]; read-out: Fluconazole MIC
  MIC: 4 µg/mL (≈ 13.1 µM)
[36]
  MIC: 0.125 µg/mL (≈ 0.408 µM)
[37]
  MIC: 0.25 µg/mL (≈ 0.816 µM)
[38]
  MIC: 0.03 µg/mL (≈ 0.098 µM)
[39]; read-out: Fluconazole MIC
  MIC: 128 µg/mL (≈ 418 µM)
[40]
  MIC: 64 µg/mL (≈ 209 µM)

## CN(C/C=C/C#CC(C)(C)C)Cc1cccc2ccccc12 [Terbinafine, terbinafine]
[1]; read-out: Terbinafine MIC
  MIC: 128 µg/mL (≈ 439 µM)
[2]; read-out: Terbinafine MIC
  MIC: 4 µg/mL (≈ 13.7 µM)
[3]
  Synergy Volume, terbinafine + one milbemycin (FEPI, not named): 500
[41]
  Synergy Volume, terbinafine + one milbemycin (FEPI, not named): 2790
[4]
  Synergy Volume, terbinafine + one milbemycin (FEPI, not named): 1517
[42]
  Synergy Volume, terbinafine + one milbemycin (FEPI, not named): 478
[13]; read-out: Terbinafine MIC
  MIC: 128 µg/mL (≈ 439 µM)
[18]
  Synergy Volume, terbinafine + one milbemycin (FEPI, not named): 1386
[19]
  Synergy Volume, terbinafine + one milbemycin (FEPI, not named): 392
[20]
  Synergy Volume, terbinafine + one milbemycin (FEPI, not named): 169
[28]; YEM71, read-out: Terbinafine MIC
  MIC: 128 µg/mL
[35]; read-out: Terbinafine MIC
  MIC: 2 µg/mL (≈ 6.86 µM)
[39]; read-out: Terbinafine MIC
  MIC: 128 µg/mL (≈ 439 µM)

Source: US6495591B1, “Fungal efflux pump inhibitors” (Essential Therapeutics, Inc., priority 1997, dated 2002)
